From patent US6608082B1, “Treatment of erectile dysfunction using isoquinoline compound melanocortin receptor ligands” (Lion Bioscience AG, priority 1998, dated 2003)
Read-outs that look alike come from different tables or passages of the source.

Biological target: T1, MCR-1 (Homo sapiens, UniProt Q01726)
T1 construct: expressed in transfected cells; host or cells: HEK 293
Experiment: Melanocortin receptor binding assay, competition with 125I-HP 467, HEK 293 cells expressing hMCR-1
Conditions: for % Disp. MC-1 10 μM: displacement of 125I-HP 467 at 10 μM isoquinoline compound; for % Disp. of 125I-HP 467 (first of duplicate) / % Disp. of 125I-HP 467 (second of duplicate): 10 μM isoquinoline compound; for % Disp. of 125I-HP 467 (first of duplicate): HEK 293 cells expressing MCR-1, duplicate 1; for % Disp. of 125I-HP 467 (second of duplicate): HEK 293 cells expressing MCR-1, duplicate 2; for IC50: read-out: MC-1 IC50
Procedure: All cell culture media and reagents were obtained from GibcoBRL (Gaithersburg Md.), except for COSMIC CALF SERUM (HyClone; Logan Utah).
Cells were suspended in PBS, 10% COSMIC CALF SERUM and 1 mM CaCl2. Cell suspensions were prepared at a density of 2×10^4 cells/ml for HEK 293 cells expressing hMCR-3, hMCR-4 or hMCR-5, and 1×10^5 cells/ml for HEK 293 cells expressing hMCR-1. Suspensions were placed in a water bath and allowed to warm to 37° C. for 1 hr.
Binding assays were performed in a total volume of 250 μl for HEK 293 cells. […] To each tube was added 4×10^3 HEK 293 cells expressing hMCR-3, hMCR-4 or hMCR-5, or 2×10^4 cells expressing hMCR-1. Assays were incubated for 2.5 hr at 37° C.
GF/B filter plates were prepared by soaking for at least one hour in 5 mg/ml BSA and 10 mM CaCl2. Assays were filtered using a Brandel 96-well cell harvester (Brandel Inc.; Gaithersburg, Md.). The filters were washed four times with cold 50 mM Tris, pH 7.4, the filter plates were dehydrated for 2 hr and 35 μl of MICROSCINT was added to each well. Filter plates were counted using a Packard Topcount (Packard Instrument Co.) and data analyzed using GraphPad PRISM v2.0 (GraphPad Software Inc.; San Diego Calif.) and Microsoft EXCEL v5.0a (Microsoft Corp.; Redmond Wash.).
To assay isoquinoline compounds, binding assays were performed in duplicate in a 96 well format. […] A 0.2 ml aliquot of suspended cells was added to each well to give the cell numbers indicate above, and the cells were incubated at 37° C. for 2.5 hr. Cells were harvested on GF/B filter plates as described above and counted.

[1] = competition with 125I-HP 467, HEK 293 cells expressing MCR-1
[2] = inhibition of binding of 125I-HP 467, HEK 293 cells expressing MCR-1

T1 sequence (Q01726 whole entry): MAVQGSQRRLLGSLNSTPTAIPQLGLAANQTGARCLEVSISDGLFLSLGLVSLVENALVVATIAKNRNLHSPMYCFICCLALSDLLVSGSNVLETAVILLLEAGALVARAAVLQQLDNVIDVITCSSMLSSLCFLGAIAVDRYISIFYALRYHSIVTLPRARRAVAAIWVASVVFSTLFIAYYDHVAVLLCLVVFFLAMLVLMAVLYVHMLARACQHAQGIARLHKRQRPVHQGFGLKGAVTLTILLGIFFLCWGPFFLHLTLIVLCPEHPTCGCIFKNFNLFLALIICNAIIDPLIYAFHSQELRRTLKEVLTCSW

Compound: NCCN1Cc2ccccc2C(CNC2CCCCC2)C1c1ccccc1Br (centres unmarked) [TRG 2405-12]
- % Disp. MC-1 10 μM (first of duplicate): 38.7%
- % Disp. MC-1 10 μM (second of duplicate): 41.8%

Compound: CN[C@H](CN)CCCCN1Cc2ccccc2C(CNC2CCCCC2)C1c1cccc2ccccc12 (some centres unmarked) [TRG 2405-185]
- % Disp. of 125I-HP 467 (first of duplicate): 68.1%
- % Disp. of 125I-HP 467 (second of duplicate): 60.4%

Compound: NCC(CCCN1Cc2ccccc2C(CNC2CCCCC2)C1c1ccc(-c2ccccc2)cc1)NCC1CCCCC1 (centres unmarked) [TRG 2411-134]
- IC50 [1]: 1480 nM

Compound: CNC(CN)CN1Cc2ccccc2C(CNC2CCCCC2)C1c1c(F)cccc1F (centres unmarked) [TRG 2405-101]
- % Disp. MC-1 10 μM (first of duplicate): 34%
- % Disp. MC-1 10 μM (second of duplicate): 45.3%

Compound: CCNc1ccc(C2C(CN)c3ccccc3CN2CCCCC(CN)NCCC2CCCCC2)cc1 (centres unmarked) [TRG 2411-70]
- IC50 [1]: 160 nM

Compound: CCNC(CN)CCCN1Cc2ccccc2C(CN)C1c1ccc(-c2ccccc2)cc1 (centres unmarked) [TRG 2411-138]
- IC50 [1]: 1270 nM

Compound: NCCN1Cc2ccccc2C(CNC2CCCCC2)C1c1ccccn1 (centres unmarked) [TRG 2405-21]
- % Disp. MC-1 10 μM (first of duplicate): 47.7%
- % Disp. MC-1 10 μM (second of duplicate): 42.5%

Compound: CCCCNC(CN)CCCCN1Cc2ccccc2C(CNC2CCCCC2)C1c1ccc(NCC)cc1 (centres unmarked) [TRG 2411-50]
- effectiveness as MC receptor ligand (binding to MC receptors, Table 1): particularly effective MC receptor ligands
- IC50 [1]: 80 nM

Compound: CNC(CN)CCCCN1Cc2ccccc2C(CNC2CCCCC2)C1c1cc(Cl)cc(Cl)c1 (centres unmarked) [TRG 2405-210]
- % Disp. of 125I-HP 467 (first of duplicate): 76.5%
- % Disp. of 125I-HP 467 (second of duplicate): 69.6%

Compound: CNC(CN)CCCCN1Cc2ccccc2C(CNC2CCCCC2)C1c1ccc2ccccc2n1 (centres unmarked) [TRG 2405-202]
- % Disp. of 125I-HP 467 (first of duplicate): 63%
- % Disp. of 125I-HP 467 (second of duplicate): 53.2%

Compound: CNC(CN)CCCCN1Cc2ccccc2C(CNC2CCCCC2)C1c1ccnc2ccccc12 (centres unmarked) [TRG 2405-255]
- % Disp. of 125I-HP 467 (first of duplicate): 29.2%
- % Disp. of 125I-HP 467 (second of duplicate): 25.3%

Compound: CCCCNc1ccc(C2C(CN)c3ccccc3CN2CCCC(CN)NCCc2ccc(Br)cc2)cc1 (centres unmarked) [TRG 2409-222]
- IC50 [1]: 120 nM

Compound: NCC(CCCCN1Cc2ccccc2C(CNCCc2ccccc2)C1c1ccc(-c2ccccc2)cc1)NCc1ccccc1 (centres unmarked) [TRG 2411-13]
- IC50 [1]: 1360 nM

Compound: CNC(CN)CCCCN1Cc2ccccc2C(CNC2CCCCC2)C1c1ccc(OC)cc1 (centres unmarked) [TRG 2405-240]
- % Disp. of 125I-HP 467 (first of duplicate): 69.6%
- % Disp. of 125I-HP 467 (second of duplicate): 66.5%

Compound: CCNc1ccc(C2C(CN)c3ccccc3CN2CCCC(CN)NCCc2ccc(OC)cc2)cc1 (centres unmarked) [TRG 2411-181]
- IC50 [2]: 110 nM

Compound: CCNc1ccc(C2C(CN)c3ccccc3CN2CCCC(CN)NCc2ccc(Cl)cc2)cc1 (centres unmarked) [TRG 2411-183]
- IC50 [2]: 130 nM

Compound: CNC(CN)CN1Cc2ccccc2C(CNC2CCCCC2)C1c1ccc(CN)cc1 (centres unmarked) [TRG 2405-154]
- % Disp. MC-1 10 μM (first of duplicate): 43.1%
- % Disp. MC-1 10 μM (second of duplicate): 54.8%

Compound: CNC(CN)CN1Cc2ccccc2C(CNC2CCCCC2)C1c1ccc(Br)cc1 (mixture of isomers) [TRG 2405-152]
- % Disp. MC-1 10 μM (first of duplicate): 52.8%
- % Disp. MC-1 10 μM (second of duplicate): 52.9%

Compound: CCCCNc1ccc(C2C(CNCCc3ccccc3)c3ccccc3CN2CCCC(CN)NCCN)cc1 (centres unmarked) [TRG 2411-201]
- IC50 [2]: 300 nM

Compound: CNC(CN)CCCCN1Cc2ccccc2C(CNC2CCCCC2)C1c1ccc(OC)c(C)c1 (mixture of isomers) [TRG 2405-226]
- % Disp. of 125I-HP 467 (first of duplicate): 79.1%
- % Disp. of 125I-HP 467 (second of duplicate): 77.7%

Compound: NCCN1Cc2ccccc2C(CNC2CCCCC2)C1c1cc(O)cc(O)c1 (centres unmarked) [TRG 2405-29]
- % Disp. MC-1 10 μM (first of duplicate): 28.5%
- % Disp. MC-1 10 μM (second of duplicate): 26.2%

Compound: CNC(CN)CN1Cc2ccccc2C(CNC2CCCCC2)C1c1cc(O)cc(O)c1 (centres unmarked) [TRG 2405-119]
- % Disp. MC-1 10 μM (first of duplicate): 25.9%
- % Disp. MC-1 10 μM (second of duplicate): 39.8%

Compound: CNC(CN)CN1Cc2ccccc2C(CNC2CCCCC2)C1c1ccc2ccccc2c1 (centres unmarked) [TRG 2405-110]
- % Disp. MC-1 10 μM (first of duplicate): 59.5%
- % Disp. MC-1 10 μM (second of duplicate): 61.6%

Compound: CNCCNC(CN)CCCN1Cc2ccccc2C(CNCCc2ccccc2)C1c1ccc(-c2ccccc2)cc1 (centres unmarked) [TRG 2411-117]
- IC50 [1]: 970 nM

Compound: CNC(CN)CN1Cc2ccccc2C(CNC2CCCCC2)C1c1cccnc1 (centres unmarked) [TRG 2405-141]
- % Disp. MC-1 10 μM (first of duplicate): 15%
- % Disp. MC-1 10 μM (second of duplicate): 16.2%

Compound: NCC(CCCCN1Cc2ccccc2C(CNCCc2ccccc2)C1c1ccc(-c2ccccc2)cc1)NCCO (centres unmarked) [TRG 2411-7]
- IC50 [1]: 630 nM

Compound: NCC(CCCCN1Cc2ccccc2C(CN)C1c1ccc(-c2ccccc2)cc1)NCCc1ccccc1 (centres unmarked) [TRG 2411-25]
- IC50 [1]: 350 nM

Compound: CNC(CN)CCCCN1Cc2ccccc2C(CNC2CCCCC2)C1c1ccc([N+](=O)[O-])c(O)c1 (mixture of isomers) [TRG 2405-250]
- % Disp. of 125I-HP 467 (first of duplicate): 34.7%
- % Disp. of 125I-HP 467 (second of duplicate): 50.5%

Compound: CNC(CN)CN1Cc2ccccc2C(CNC2CCCCC2)C1c1ccccc1CN (centres unmarked) [TRG 2405-105]
- % Disp. MC-1 10 μM (first of duplicate): 20.2%
- % Disp. MC-1 10 μM (second of duplicate): 49.9%

Compound: CNC(C)CNC(CN)CCCN1Cc2ccccc2C(CN)C1c1ccc(-c2ccccc2)cc1 (mixture of isomers) [TRG 2411-142]
- IC50 [1]: 1280 nM

Compound: CN(C)c1ccc(C2C(CNC3CCCCC3)c3ccccc3CN2CCN)cc1 (centres unmarked) [TRG 2405-55]
- % Disp. MC-1 10 μM (first of duplicate): 32.6%
- % Disp. MC-1 10 μM (second of duplicate): 38.1%

Compound: CNC(CN)CCCCN1Cc2ccccc2C(CNC2CCCCC2)C1c1cccc(C)c1 (centres unmarked) [TRG 2405-227]
- % Disp. of 125I-HP 467 (first of duplicate): 78.2%
- % Disp. of 125I-HP 467 (second of duplicate): 74.6%

Compound: CNC(CN)CN1Cc2ccccc2C(CNC2CCCCC2)C1c1ccc(C)s1 (centres unmarked) [TRG 2405-168]
- % Disp. MC-1 10 μM (first of duplicate): 44.9%
- % Disp. MC-1 10 μM (second of duplicate): 24.1%

Compound: CNC(CN)CN1Cc2ccccc2C(CNC2CCCCC2)C1c1cccc(C)c1 (centres unmarked) [TRG 2405-137]
- % Disp. MC-1 10 μM (first of duplicate): 40.6%
- % Disp. MC-1 10 μM (second of duplicate): 46%

Compound: NCCN1Cc2ccccc2C(CNC2CCCCC2)C1c1ccc(F)c(Br)c1 (centres unmarked) [TRG 2405-36]
- % Disp. MC-1 10 μM (first of duplicate): 51.8%
- % Disp. MC-1 10 μM (second of duplicate): 53.6%

Compound: NCC(CCCCN1Cc2ccccc2C(CNC2CCCCC2)C1c1ccc(-c2ccccc2)cc1)NCCO (centres unmarked) [TRG 2411-16]
- IC50 [1]: 900 nM

Compound: NCCN1Cc2ccccc2C(CNC2CCCCC2)C1c1ccco1 (centres unmarked) [TRG 2405-17]
- % Disp. MC-1 10 μM (first of duplicate): 36%
- % Disp. MC-1 10 μM (second of duplicate): 32.8%

Compound: CNC(CN)CCCCN1Cc2ccccc2C(CNC2CCCCC2)C1c1ccc(C)o1 (centres unmarked) [TRG 2405-259]
- % Disp. of 125I-HP 467 (first of duplicate): 42.5%
- % Disp. of 125I-HP 467 (second of duplicate): 46.1%

Compound: NCCN1Cc2ccccc2C(CNC2CCCCC2)C1c1ccc(O)cc1 (centres unmarked) [TRG 2405-66]
- % Disp. MC-1 10 μM (first of duplicate): 81.6%
- % Disp. MC-1 10 μM (second of duplicate): 11.3%

Compound: NCC(N)CCCN1Cc2ccccc2C(CN)C1c1ccc(-c2ccccc2)cc1 (mixture of isomers) [TRG 2411-136]
- IC50 [1]: 1730 nM

Compound: CNC(CN)CCCCN1Cc2ccccc2C(CNC2CCCCC2)C1c1cccc(O)c1 (centres unmarked) [TRG 2405-223]
- % Disp. of 125I-HP 467 (first of duplicate): 33.6%
- % Disp. of 125I-HP 467 (second of duplicate): 21.2%

Compound: CNC(CN)CN1Cc2ccccc2C(CNC2CCCCC2)C1c1ccc(F)c(F)c1F (centres unmarked) [TRG 2405-96]
- % Disp. MC-1 10 μM (first of duplicate): 44.5%
- % Disp. MC-1 10 μM (second of duplicate): 54.4%

Compound: CNC(CN)CCCCN1Cc2ccccc2C(CNC2CCCCC2)C1c1c(F)cccc1Cl (centres unmarked) [TRG 2405-194]
- % Disp. of 125I-HP 467 (first of duplicate): 50.7%
- % Disp. of 125I-HP 467 (second of duplicate): 51.4%

Compound: CCNc1ccc(C2C(CN)c3ccccc3CN2CCCC(CN)NCCc2ccccc2)cc1 (centres unmarked) [TRG 2413-11]
- IC50 [2]: 130 nM

Compound: CNC(CN)CCCCN1Cc2ccccc2C(CNC2CCCCC2)C1c1cccc(OC)c1 (centres unmarked) [TRG 2405-225]
- % Disp. of 125I-HP 467 (first of duplicate): 69.8%
- % Disp. of 125I-HP 467 (second of duplicate): 69.4%

Compound: CCNc1ccc(C2C(CNC3CCCCC3)c3ccccc3CN2CCCC(CN)NCCc2ccccc2)cc1 (centres unmarked) [TRG 2413-10]
- IC50 [2]: 310 nM

Compound: CCNc1ccc(C2C(CNC3CCCCC3)c3ccccc3CN2CCCC(CN)NCCc2ccc(OC)cc2)cc1 (centres unmarked) [TRG 2411-168]
- IC50 [2]: 230 nM
